Assay results taken from US12122778B2, “Activating pyruvate kinase R” (Novo Nordisk Health Care AG, priority 2018, dated 2024).

Tests used:
[1] = biological target: PKR(R510Q) (Homo sapiens, UniProt P30613, R510Q); test: Luminescence Biochemical Assay (Kinase Glo Plus), PKR R510Q mutant; settings: without FBP; for activation at 1.54 µM: 1.54 μM compound, read-out: AC50 LUM KGP woFBP % Fold@1.54 μM mean; for AC50: read-out: AC50 LUM KGP woFBP AC50 μM gmean; for Emax: read-out: AC50 LUM KGP woFBP MAX % FOLD mean
Method: (§1) In some embodiments, a PKR Activating Compound can have: (1) an AC50 value of less than 0.1 μM (e.g., compounds with AC50 values of “+++” in Table 13), 0.1-1.0 μM (e.g., compounds with AC50 values of “++” in Table 13), or 1.01-40 μM (e.g., compounds with AC50 values of “+” in Table 13); (2) a MAX % Fold of 75%-250%, 250-500%, or 75%-500%; and/or (3) a % Fold@1.54 μM of 75%-250%, 250-500%, or 75%-500%. In some embodiments, a PKR Activating Compound has (1) an AC50 value of less than 1.0 μM; (2) a MAX % Fold of 75%-500%; and/or (3) a % Fold@1.54 μM of 75%-500%.
(§2) The phosphorylation of Adenosine-5′-diphosphate (ADP) by various mutants of PKR was determined by the Kinase Glo Plus Assay (Promega) in the presence or absence of FBP [D-Fructose-1,6-diphosphate; BOC Sciences, CAS: 81028-91-3] as follows. Unless otherwise indicated, all reagents were purchased from Sigma-Aldrich. All reagents were prepared in buffer containing 50 mM Tris-HCl, 100 mM KCl, 5 mM MgCl2, and 0.01% Triton X100, 0.03% BSA, and 1 mM DTT. Enzyme and PEP [Phospho(enol) pyruvic acid] were added at 2× to all wells of an assay-ready plate containing serial dilutions of test compounds or DMSO vehicle. Final enzyme concentrations for PKR(wt), PKR(R510Q), and PKR(G332S) were 0.8 nM, 0.8 nM, and 10 nM respectively. Final PEP concentration was 100 μM. The Enzyme/PEP mixture was incubated with compounds for 30 minutes at RT before the assay was initiated with the addition of 2×ADP [Adenosine-5′-diphosphate] and KinaseGloPlus. Final concentration of ADP was 100 μM. […] For assays containing FBP, that reagent is added at 30 μM upon reaction initiation. Reactions were allowed to progress for 45 minutes at RT until luminescence was recorded by the BMG PHERAstar FS Multilabel Reader. All compounds were tested in triplicate at concentrations ranging from 42.5 μM to 2.2 nM in 0.83% DMSO.
(§3) Luminescence values were converted to % Fold increase by normalizing to the average of the DMSO control and multiplying by 100. Max, min, slope and AC50 were determined by the standard four parameter fit algorithm of ActivityBase XE Runner. Compounds were evaluated with three parameters—AC50, MAX % Fold, and % Fold@1.54 μM (FIG. 1). The AC50 value for a compound is the concentration (μM) corresponding to the midway between the maximum and minimum values of the four parameter logistic curve fit (i.e., at which the % fold increase along the four parameter logistic curve fit is halfway between MAX % Fold and MIN % Fold (% Fold Midpoint)), MAX % Fold is the highest fold increase observed at any concentration of compound, and % Fold@1.54 μM is the fold increase at a compound concentration of 1.54 μM. The parameter % Fold@1.54 μM was selected to capture elements of both the AC50 and MAX % Fold and to provide a ranking based on both potency and effect. The compound concentration of 1.54 μM was chosen as one that can optimally differentiate the set of compounds based on the range of activities observed.
(§4) As set forth in Table 13 below, AC50 values (columns A, D, G) are defined as follows: ≤0.1 μM (+++); >0.1 μM and ≤1.0 μM (++); >1.0 μM and ≤40 μM (+); >40 μM (0). Max % FOLD values (columns B, E, H) are defined as follows: ≤75% (+); >75% and ≤250% (++); >250% and ≤500% (+++). % Fold@1.54 μM values (columns C, F, J) are defined as follows: ≤75% (+); >75% and ≤250% (++); >250% and ≤50000 (+++).

[2] = biological target: PKR(wt) (Homo sapiens, UniProt P30613); test: Luminescence Biochemical Assay (Kinase Glo Plus), wild type PKR; settings: without FBP; for activation at 1.54 µM: 1.54 μM compound, read-out: AC50 LUM KGP woFBP % Fold@1.54 μM mean; for AC50: read-out: AC50 LUM KGP woFBP AC50 μM gmean; for Emax: read-out: AC50 LUM KGP woFBP MAX % FOLD mean
Method: as §1, §2, §3, §4

PKR(R510Q), sequence (P30613 whole entry R510Q): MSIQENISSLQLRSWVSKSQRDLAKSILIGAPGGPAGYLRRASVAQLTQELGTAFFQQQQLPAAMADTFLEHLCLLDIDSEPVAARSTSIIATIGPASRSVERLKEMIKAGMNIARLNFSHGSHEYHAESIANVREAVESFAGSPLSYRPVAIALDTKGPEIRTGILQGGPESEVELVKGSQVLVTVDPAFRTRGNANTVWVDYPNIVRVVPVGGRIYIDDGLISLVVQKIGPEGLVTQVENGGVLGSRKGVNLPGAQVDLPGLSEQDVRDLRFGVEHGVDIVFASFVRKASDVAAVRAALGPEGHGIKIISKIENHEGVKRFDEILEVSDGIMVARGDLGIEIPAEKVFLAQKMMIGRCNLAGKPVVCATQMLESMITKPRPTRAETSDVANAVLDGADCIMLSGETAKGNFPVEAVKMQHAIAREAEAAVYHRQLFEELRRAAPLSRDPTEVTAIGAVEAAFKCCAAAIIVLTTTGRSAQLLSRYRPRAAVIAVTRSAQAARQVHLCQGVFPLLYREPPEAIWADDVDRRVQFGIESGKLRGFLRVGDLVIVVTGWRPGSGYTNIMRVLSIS
PKR(wt), sequence (P30613 whole entry): as the sequence (P30613 whole entry R510Q) above, with Q510R counted along it

Structure (SMILES) | activation at 1.54 µM [1] [%] | AC50 [1] [µM] | Emax [1] [%] | activation at 1.54 µM [2] [%] | AC50 [2] [µM] | Emax [2] [%]
O=C(NCc1ncco1)N1CC2=C(C1)CN(S(=O)(=O)c1ccc3ncsc3c1)C2 [Example 21-29, 5-(1,3-Benzothiazole-6-sulfonyl)-N-(1,3-oxazol-2-ylmethyl)-1H,2H,3H,4H,5H,6H-pyrrolo[3,4-c]pyrrole-2-carboxamide] | 75 to 250 | 0.1 to 1 | 75 to 250 | 250 to 50000 | 0.1 to 1 | 250 to 500
COc1ccc(CNC(=O)N2CC3=C(C2)CN(S(=O)(=O)c2cccc(F)c2)C3)cc1 [Example 20-7, 5-(3-Fluorobenzenesulfonyl)-N-[(4-methoxyphenyl)methyl]-1H,2H,3H,4H,5H,6H-pyrrolo[3,4-c]pyrrole-2-carboxamide] | 250 to 50000 | 0.1 to 1 | 250 to 500 |  |  | 
N#Cc1ccc(S(=O)(=O)N2CC3=C(CN(C(=O)[C@H](O)c4ccccc4)C3)C2)cc1 [Example 18-45, 4-({5-[(2R)-2-hydroxy-2-phenylacetyl]-1H,2H,3H,4H,5H,6H-pyrrolo[3,4-c]pyrrol-2-yl}sulfonyl)benzonitrile] | 75 to 250 | 0.1 to 1 | 250 to 500 | 75 to 250 | 0.1 to 1 | 75 to 250
O=C([C@H](O)c1ccccc1)N1CC2=C(C1)CN(S(=O)(=O)c1ccc(C(F)(F)F)nc1)C2 [Example 18-14, (2R)-2-hydroxy-2-phenyl-1-(5-{[6-(trifluoromethyl)pyridin-3-yl]sulfonyl}-1H,2H,3H,4H,5H,6H-pyrrolo[3,4-c]pyrrol-2-yl)ethan-1-one] | 75 to 250 | 1 to 40 | 75 to 250 | 75 to 250 | 1 to 40 | 75 to 250
Cc1nn(C)c(Cl)c1S(=O)(=O)N1CC2=C(CN(C(=O)[C@H](C)c3ccccc3)C2)C1 [Example 19-2, (2R)-1-{5-[(5-chloro-1,3-dimethyl-1H-pyrazol-4-yl)sulfonyl]-1H,2H,3H,4H,5H,6H-pyrrolo[3,4-c]pyrrol-2-yl}-2-phenylpropan-1-one] | 75 to 250 | 1 to 40 | 75 to 250 |  |  | 
COc1ccc(CNC(=O)N2CC3=C(C2)CN(S(=O)(=O)c2ccc(OC)c(OC)c2)C3)cc1 [Example 20-31, 5-(3,4-Dimethoxybenzenesulfonyl)-N-[(4-methoxyphenyl)methyl]-1H,2H,3H,4H,5H,6H-pyrrolo[3,4-c]pyrrole-2-carboxamide] | 75 to 250 | 1 to 40 | 75 to 250 |  |  | 
Cc1cc(C(=O)N2CC3=C(C2)CN(S(=O)(=O)c2ccc4occc4c2)C3)nn1C [Example 18-84, 3-[5-(1-Benzofuran-5-sulfonyl)-1H,2H,3H,4H,5H,6H-pyrrolo[3,4-c]pyrrole-2-carbonyl]-1,5-dimethyl-1H-pyrazole] |  |  |  | 75 to 250 | 1 to 40 | 75 to 250
CC[C@H](O)C(=O)N1CC2=C(C1)CN(S(=O)(=O)c1ccc3c(c1)N(C)CCO3)C2 [Example 18-75, (2S)-2-hydroxy-1-{5-[(4-methyl-3,4-dihydro-2H-1,4-benzoxazin-6-yl)sulfonyl]-1H,2H,3H,4H,5H,6H-pyrrolo[3,4-c]pyrrol-2-yl}butan-1-one] |  |  |  | 75 to 250 | 1 to 40 | 75 to 250
O=C(CCC(F)F)N1CC2=C(C1)CN(S(=O)(=O)c1ccc3occc3c1)C2 [Example 1-2, 1-(5-(Benzofuran-5-ylsulfonyl)-3,4,5,6-tetrahydropyrrolo[3,4-c]pyrrol-2(1H)-yl)-4,4-difluorobutan-1-one] |  |  |  | 75 to 250 | 0.1 to 1 | 250 to 500
Cc1nc(C)c(C(=O)N2CC3=C(C2)CN(S(=O)(=O)c2ccc4occc4c2)C3)s1 [Example 18-85, 5-[5-(1-Benzofuran-5-sulfonyl)-1H,2H,3H,4H,5H,6H-pyrrolo[3,4-c]pyrrole-2-carbonyl]-2,4-dimethyl-1,3-thiazole] |  |  |  | 75 to 250 | 1 to 40 | 75 to 250
Cc1cnc(C(=O)N2CC3=C(C2)CN(S(=O)(=O)c2ccc4occc4c2)C3)cn1 [Example 18-82, 2-[5-(1-Benzofuran-5-sulfonyl)-1H,2H,3H,4H,5H,6H-pyrrolo[3,4-c]pyrrole-2-carbonyl]-5-methylpyrazine] |  |  |  | 75 to 250 | 1 to 40 | 75 to 250
C[C@@H](C(=O)N1CC2=C(C1)CN(S(=O)(=O)c1ccc(Cl)s1)C2)c1ccccc1 [Example 19-1, (2R)-1-{5-[(5-chlorothiophen-2-yl)sulfonyl]-1H,2H,3H,4H,5H,6H-pyrrolo[3,4-c]pyrrol-2-yl}-2-phenylpropan-1-one] | 75 to 250 | 1 to 40 | 75 to 250 |  |  | 
O=C([C@H](O)c1ccccc1)N1CC2=C(C1)CN(S(=O)(=O)c1cc(F)ccc1Cl)C2 [Example 18-57, (2R)-1-[5-(2-chloro-5-fluorobenzenesulfonyl)-1H,2H,3H,4H,5H,6H-pyrrolo[3,4-c]pyrrol-2-yl]-2-hydroxy-2-phenylethan-1-one] |  |  |  | 75 to 250 | 0.1 to 1 | 75 to 250
O=C(OCc1cccnc1)N1CC2=C(C1)CN(S(=O)(=O)c1ccc3occc3c1)C2 [Example 22-7, Pyridin-3-ylmethyl 5-(1-benzofuran-5-sulfonyl)-1H,2H,3H,4H,5H,6H-pyrrolo[3,4-c]pyrrole-2-carboxylate] |  |  |  | 250 to 50000 | 0.1 to 1 | 250 to 500
NCC1(C(=O)N2CC3=C(C2)CN(S(=O)(=O)c2ccc4occc4c2)C3)CC1 [Example 2-1, (1-(Aminomethyl)cyclopropyl)(5-(benzofuran-5-ylsulfonyl)-3,4,5,6-tetrahydropyrrolo[3,4-c]pyrrol-2(1H)-yl)methanone] |  |  |  | 75 to 250 | 1 to 40 | 75 to 250
O=C(c1ccccn1)N1CC2=C(C1)CN(S(=O)(=O)c1ccc3occc3c1)C2 [Example 18-83, 2-[5-(1-Benzofuran-5-sulfonyl)-1H,2H,3H,4H,5H,6H-pyrrolo[3,4-c]pyrrole-2-carbonyl]pyridine] |  |  |  | 75 to 250 | 1 to 40 | 75 to 250
CN1CCOc2ccc(S(=O)(=O)N3CC4=C(CN(C(=O)[C@@H]5CCCO5)C4)C3)cc21 [Example 18-77, 4-Methyl-6-({5-[(2S)-oxolane-2-carbonyl]-1H,2H,3H,4H,5H,6H-pyrrolo[3,4-c]pyrrol-2-yl}sulfonyl)-3,4-dihydro-2H-1,4-benzoxazine] |  |  |  | 75 to 250 | 1 to 40 | 75 to 250
COC[C@@H](C)NC(=O)N1CC2=C(C1)CN(S(=O)(=O)c1ccc3occc3c1)C2 [Example 3-3, (R)-5-(benzofuran-5-ylsulfonyl)-N-(1-methoxypropan-2-yl)-3,4,5,6-tetrahydropyrrolo[3,4-c]pyrrole-2(1H)-carboxamide] |  |  |  | 75 to 250 | 1 to 40 | 75 to 250
O=C(c1ccc(OCC(F)(F)F)nc1)N1CC2=C(C1)CN(S(=O)(=O)c1ccc3occc3c1)C2 [Example 18-81, 5-[5-(1-Benzofuran-5-sulfonyl)-1H,2H,3H,4H,5H,6H-pyrrolo[3,4-c]pyrrole-2-carbonyl]-2-(2,2,2-trifluoroethoxy)pyridine] |  |  |  | 250 to 50000 | 0.1 to 1 | 250 to 500
